Experimental data as given in PMC6271476, “Synthesis, Anticancer Activity and UPLC Analysis of the Stability of Some New Benzimidazole-4,7-dione Derivatives” (Molecules, 2013).
Where two headings read alike, the source gives them in different places.

Columns and labels:
[1] = tested on: human lung adenocarcinoma A549 cells; assay: WST-1 cell viability assay, growth inhibition of A549 cells under normoxia and hypoxia; details: for Differential cytotoxicity O/H (hypoxic/aerobic cytotoxicity coefficient): ratio IC50 normoxia / IC50 hypoxia, A549; for inhibition of the cell growth / decrease of cell viability compared to control cells: compound at 10 µM, 48 h
Description: (§1) The human lung adenocarcinoma A549 cell line, purchased from Health Protection Agency Culture Collections (ECACC, Salisbury, UK), was cultured in F12K medium (HyClone, Loughborough, UK) supplemented with 10% heat-inactivated foetal bovine serum (FBS), penicillin (10 U/mL) and streptomycin (10 µg/mL) in air with 5% CO2 at 37 °C. Hypoxic cells were obtained by culturing in a hypoxic incubator in 1% O2 and 5% CO2 at 37 °C for 24 h before treatment.
(§2) In order to determine the anticancer activity of the analysed compounds we evaluated the cell viability using THE WST-1 assay (Millipore, Billerica, MA, USA) according to the manufacturer’s instructions.
(§3) The absorbance was determined at 420 nm using a microplate reader (Synergy H1, Bio-Tek, Winooski, VT, USA) after 3 h of incubation at 37 °C.
(§4) In order to determine the anticancer activity of the analysed compounds we evaluated the cell viability using the WST-1 assay, which is based on the conversion of the tetrazolium salt WST-1 to formazan by cellular mitochondrial dehydrogenases. Therefore, the amount of formazan dye formed directly correlates with the number of live cells in the culture.
(§5) A549 cells were seeded in 96-well plates at a density of 5,000 cells/well and cultured under normoxic conditions. To investigate the effect of compounds on hypoxic cancer cells, A549 cells were exposed to hypoxia (1% O2) for 24 h before treatment. […] Normoxic and hypoxic cells were treated with different concentrations of the tested compounds or vehicle (0.2% DMSO) for control cells. The cell viability was assessed after a 48 h incubation under normoxic or hypoxic conditions with the compounds. Briefly, WST-1 reagent was added to the cells and the percentage (%) of cell viability related to control cells was calculated by the expression [A] test/[A] control × 100 where [A] test is the absorbance of the cells treated with compounds and [A] control is the absorbance of control cells.

[2] = Stability (degradation kinetics, recovery) in different solvent environments by RP-UPLC; type: physicochemical; details: for half-life at 0.1 mg/mL: read-out: degradation t1/2 (converted)
[3] = as above; type: physicochemical; details: for half-life at 0.1 mg/mL: read-out: degradation t1/2 (converted); remark: listed apart in the source
Description: Chromatographic purification was performed on silica gel plates (Merck F254, Darmstadt, Germany) with the indicated eluents. Chemicals and solvents were obtained from commercial sources. The UPLC system consisted of an Acquity Ultra Performance LC Waters H-class system (Waters, Corporation, Milford, MA, USA). Chromatographic separation was achieved on an Acquity UPLC HSS T3 column (1.8 µm × 2.1 × 50 mm). The chromatographic peaks were identified with the Waters PDA eλ Acquity UPLC Detector. Compound 5b was monitored at a wavelength of 261 nm and compound 6b at 289 nm. All chromatographic experiments were performed in an isocratic mode. The mobile phase consisted of a mixture of solvents of chromatographic purity, acetonitrile/buffer (30:70 v/v). Buffer was a 0.01 M mixture of ammonium formate and formic acid pH = 2.4. The flow rate was set to 0.5 mL/min and the oven temperature to 25 °C. Compound samples were weighed on analytical scales with an accuracy of 0.01 mg. All the samples were prepared in 5, 10 and 25 mL volumetric flasks. Solution volume injections of 1.5 µL were performed with the use of an autosampler. Each sample was analysed three times and the run time analysis was five minutes. All solutions were filtered through a 0.45 µm membrane filter. The final result was presented as an arithmetical mean. The control of the UPLC system and detection was achieved by the Empower 3 Waters® software. Solvents for UPLC analysis were of UPLC grade and obtained from J. T. Baker (Center Valley, PA, USA). The method was validated in terms of precision, accuracy, specificity, detectability, and stability for compounds 5b and 6b.
Stability: Each medium (1 mL, 0.2% DMSO, water, 0.9% NaCl, and HCl pH = 1.5) was added to 10 mL volumetric flasks containing products 5b and 6b (1 mg). The flasks were filled up with the mobile phase. Each solution was analysed at t0 and after 6, 24, 48, and 72 h. The obtained calibration curve was used for the determination of degradation kinetics of the compounds in the solvents. The degradation kinetic parameters: rate constant (k) and t1/2 (half-life) were calculated with the use of Equation (3), where c0 is the concentration at time zero, c is the remaining concentration, k is the rate constant (h^−1) and t is the time (h): […]

[4] = tested on: human lung adenocarcinoma A549 cells
Description: as §1, §2, §3, §4, §5

[5] = Homo sapiens, A549, 48 h, read-out: IC50 A549 Normoxia (O), A549 cells, normoxia, 48 h incubation, WST-1, mean ± SD, n = 3
[6] = Homo sapiens, A549, read-out: IC50 A549 Hypoxia (H), A549 cells, hypoxia (1% O2, 24 h before treatment and during culture), 48 h incubation, WST-1, mean ± SD, n = 3
[7] = read-out: IC50 A549 Hypoxia (H), A549 cells, hypoxia (1% O2, 24 h before treatment and during culture), 48 h incubation, WST-1, mean ± SD, n = 3
[8] = read-out: IC50 A549 Normoxia (O), A549 cells, normoxia, 48 h incubation, WST-1, mean ± SD, n = 3

IC50 [1, 5] [µM] | IC50 [1, 6] [µM] | IC50 [1, 7] [µM] | IC50 [1, 8] [µM] | Molecule | Differential cytotoxicity O/H (hypoxic/aerobic cytotoxicity coefficient) [1] | also measured
– | – | 96.8 ± 1.9 | – | O=C1C=CC(=O)c2c1[nH]c(-c1ccc3ccccc3c1)[n+]2[O-] [Compound 6d, 2-Naphthyl-1H-benzimidazol-4,7-dione N-oxide] | 2.62 | –
– | 116 ± 0.8 | – | – | O=C1C=CC(=O)c2c1[nH]c(-c1ccccc1[N+](=O)[O-])[n+]2[O-] [Compound 6b, 2-(2-Nitrophenyl)-1H-benzimidazol-4,7-dione N-oxide] | 4.31 | degradation rate constant k ([2]; MeOH): 0.0002 h⁻¹; half-life at 0.1 mg/mL ([2]; MeOH): 161 h; degradation rate constant k ([3]; 0.2% DMSO): 0.00009 h⁻¹; half-life at 0.1 mg/mL ([3]; 0.2% DMSO): 413 h; degradation rate constant k ([3]; 0.9% NaCl): 0.0004 h⁻¹; half-life at 0.1 mg/mL ([3]; 0.9% NaCl): 142 h; degradation rate constant k ([3]; H2O): 0.0004 h⁻¹; half-life at 0.1 mg/mL ([3]; water, H2O): 146 h
79.5 ± 1.9 | 44 ± 2.5 | – | – | O=C1C=CC(=O)c2c1[nH]c(-c1ccc3c(c1)OCO3)[n+]2[O-] [Compound 6c, 2-Benzo[1,3]dioxol-1H-benzimidazol-4,7-dione N-oxide] | 1.80 | –
– | – | 35 ± 1.6 | 116 ± 1.9 | 2-(4-Chlorophenyl)-1H-benzimidazol-4,7-dione N-oxide [Compound 6a] | – | Differential cytotoxicity O/H (hypoxic/aerobic cytotoxicity coefficient) [4]: 3.28; inhibition of the cell growth / decrease of cell viability compared to control cells ([1]; normoxia): 20%

Continued, molecule first:

Molecule | IC50 [1, 5] [µM] | IC50 [1, 6] [µM] | IC50 [1, 7] [µM] | IC50 [1, 8] [µM] | Differential cytotoxicity O/H (hypoxic/aerobic cytotoxicity coefficient) [1] | also measured
O=C1C=CC(=O)c2[nH]c(-c3ccc4c(c3)OCO4)nc21 [Compound 5c, 2-Benzo[1,3]dioxol-1H-benzimidazol-4,7-dione] | 80.9 ± 1.9 | 51.2 ± 1.5 | – | – | 1.58 | –
O=C1C=CC(=O)c2[nH]c(-c3ccc4ccccc4c3)nc21 [Compound 5d, 2-Naphthyl-1H-benzimidazol-4,7-dione] | – | – | 232.4 ± 1.4 | – | 2.06 | –
O=C1C=CC(=O)c2[nH]c(-c3ccc(Cl)cc3)nc21 [Compound 5a, 2-(4-Chlorophenyl)-1H-benzimidazol-4,7-dione] | 30.2 ± 1.2 | 36.1 ± 1.2 | – | – | 0.83 | inhibition of the cell growth / decrease of cell viability compared to control cells ([1]; normoxia): approximately 33%
Nc1n[n+]([O-])c2ccccc2[n+]1[O-] [Tirapazamine, reference compound] | 166 | 30 ± 1.5 | – | 166.2 ± 1.6 | – | –
O=C1C=CC(=O)c2[nH]c(-c3ccccc3[N+](=O)[O-])nc21 [Compound 5b, 2-(2-Nitrophenyl)-1H-benzimidazol-4,7-dione] | < 100 | 47.4 ± 1.1 | – | 100 ± 1.8 | 2.13 | half-life at 0.1 mg/mL ([2]; MeOH): > 72 h; degradation ([2]; methanol, up to 72 h): did not suffer any degradation; degradation rate constant k ([3]; 0.2% DMSO): 0.0002 h⁻¹; half-life at 0.1 mg/mL ([3]; 0.2% DMSO): 215 h; degradation rate constant k ([3]; 0.9% NaCl): 0.0004 h⁻¹; half-life at 0.1 mg/mL ([3]; 0.9% NaCl): 155 h; degradation ([3]; water, up to 72 h): did not suffer any degradation; half-life at 0.1 mg/mL ([3]; water, H2O): > 72 h
